The results in this text go back to publication PMC10096175, “An In Vitro Antimicrobial, Anticancer and Antioxidant Activity of N–[(2–Arylmethylthio)phenylsulfonyl]cinnamamide Derivatives” (Molecules, 2023).

Converted amounts (≈) assume the structure as drawn.

One data set deals with C. albicans ATCC 10231. As to the kind of experiment: MIC determination, reference fungal strain (microdilution). The format is cell-based. Conditions: Candida albicans, ATCC10231; C. albicans ATCC 10231; read-out: MIC. On the technique in general: In broth dilution the organism is exposed to a series of concentrations in liquid medium.
Data set [1] relates to Staphylococcus sp. and Enterococcus sp. As to the kind of experiment: MIC, summary statements on reference Gram-positive cocci. The class given is cell-based. Conditions: Staphylococcus and Enterococcus species, reference Gram-positive cocci (range over strains). As to the method:
Sterile sheep blood defibrinated (GrasoBiotech). Co-trimoxazole (composition sulfamethoxazole 400 mg/trimethoprim 80 mg; WZF Polfa Poland). Ketoconazole (WZF Polfa Poland). Bacteria: Enterococcus hirae ATCC 10541 and Enterococcus faecalis ATCC 51299, Staphylococcus epidermidis ATCC 14990, Staphylococcus aureus ATCC 6538, clinical strains Staphylococcus aureus MRSA, clinical strains Staphylococcus sp. (MRCNS), clinical strain Staphylococcus epidermidis MRSE, clinical strain Enterococcus sp., Corynebacterium diphtheriae ZMF, Bacillus subtilis ATCC 6633, Escherichia coli ATCC 8739, Candida albicans ATCC 10231. Brain-heart infusion broth (BHI, Becton Dickinson) for Enterococcus hirae ATCC 10541 and Enterococcus faecalis ATCC 51299, BHI supplement with 10% bovine serum for Bacillus subtilis, Corynebacterium diphtheriae ZMF, Staphylococcus epidermidis ATCC 14990, Staphylococcus aureus ATCC 6538, clinical strains Staphylococcus aureus MRSA, clinical strains Staphylococcus sp. (CNS), clinical strain Staphylococcus epidermidis MRSE grew in Mueller-Hinton broth (MH cation-adjusted, Becton Dickinson) in an aerobic atmosphere at 37 °C for 48 h, in an aerobic atmosphere at 37 °C for 72 h. Candida albicans grew in Sabourauda broth (Sb, Becton Dickinson), in an aerobic atmosphere at 37 °C for 72 h. After determination of the bacterial viability, BHI blood agar plates, MH agar plates, and Sb agar plates were used.
The MIC determination for the reference and clinical strains was performed based on the methodology described by Kula et al.. The dry test samples were dissolved in dimethyl sulfoxide (DMSO) and diluted in water, resulting in a finale concentration of about 500 µg/mL. These solutions were diluted and added to the first well of each microtiter line. Dilution in geometric progression was done by transferring the mixture/dilution (100 μL) from the first to the twelfth well. An aliquot (100 μL) was discarded from the twelfth well. The final concentration of the samples used in the antimicrobial activity assay ranged from 125 to 0.006 µg/mL. Co-trimoxazole (for bacteria), with the composition sulfamethoxazole 400 mg/trimethoprim 80 mg was used as a reference compound in the concentration range of 20 000/4000 to 1/0.2 µg/mL. Ketoconazole (for fungi) was used as a reference compound in the concentration range of 125 to 0.006 µg/mL. Tests were incubated in adequate conditions described by Kula et al.. Diluent concentration had no effect on the activity of the tested compounds. All experiments were carried out three times.

Data set [2] deals with cancer cells (HeLa, SKOV-3, MCF-7). As to the kind of experiment: MTT assay, summary statements on the cancer cells. Conditions: Homo sapiens, cell line not specified. The class given is cell-based.
The nature of the next data set: DPPH assay. Conditions: DPPH radical scavenging; 40 min, room temperature. Summed up: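 Samples in methanol/DMSO (9/1 v/v) mixed with 0.06 mM methanolic DPPH (170 µL in 300 µL final), kept 40 min at room temperature in the dark. Absorbance at 510 nm; inhibition % relative to solvent control, IC50 derived from concentration series. Three runs in triplicate (n = 9).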
For orientation: The DPPH test is a chemical assay of radical scavenging.

In data set [3] the test system is 24 h biofilm already formed by MRSA strains. As to the kind of experiment: Effect on 24 h biofilm already formed, MRSA. The format is cell-based, Staphylococcus aureus. Conditions: MRSA12677.
A further data set can be described thus: in vitro. Conditions: sheep, defibrinated sheep blood diluted 1:9 v/v with PBS, pH 7.
The test system of data set [4] is biofilm formation by MRSA clinical strains. As to the kind of experiment: Inhibition of biofilm formation (crystal violet), MRSA. The format is cell-based, Staphylococcus aureus. Conditions: 2 × MIC.

One may read the MIC as the lowest concentration found to suppress growth. One may read the IC50 as the midpoint of a concentration-inhibition curve. On to `Cc1cc(S(=O)(=O)NC(=O)/C=C/c2ccc(Cl)cc2)c(SCc2cccc3ccccc23)cc1Cl` [Compound 16d, (E)–N–{4–Chloro–5–methyl–2–[(naphthalen–1–yl)methylthio]phenylsulfonyl}–3–(4–chlorophenyl)acrylamide], for which the MIC in the data set on C. albicans ATCC 10231 was above 125 µg/mL; in data set [1], 1 to 2 µg/mL (≈ 1.84 to 3.69 µM). The IC50 was below 10 µg/mL in data set [2] (MTT) and at most 20 µM in data set [2] (µg/mL bound converted). Further, in “DPPH assay”, the “IC50 DPPH” value is listed as 348.21 ± 0.29 µg/mL (≈ 642 µM).
For the molecule `COc1ccc(/C=C/C(=O)NS(=O)(=O)c2cc(C)c(Cl)cc2SCc2cccc3ccccc23)cc1F` [Compound 16e, (E)–N–{4–Chloro–5–methyl–2–[(naphthalen–1–yl)methylthio]phenylsulfonyl}–3–(3–fluoro–4–methoxyphenyl)acrylamide], the MIC in the data set with C. albicans ATCC 10231 was above 125 µg/mL. The “Inhibition of biofilm already formed, in relation to the control” value in data set [3] (2 × MIC and 4 × MIC) was “about 53%”. The “IC50 DPPH” value in “DPPH assay” worked out at 539.30 ± 0.13 µg/mL (≈ 970 µM). The hemolysis at 24 h, 31.25 µg/mL in “in vitro” was 12 to 20%.
Turning to `Cc1cc(S(=O)(=O)NC(=O)/C=C/c2ccc(Cl)cc2)c(SCc2cc3c(cc2Cl)OCO3)cc1Cl` [Compound 17c, (E)–N–{4–Chloro–2–[(6–chlorobenzo[d][1,3]dioxol–5–yl)methylthio]–5–methylphenylsulfonyl}–3–(4–chlorophenyl)acrylamide], the MIC in the data set with C. albicans ATCC 10231 is above 125 µg/mL; in data set [1] it was 1 to 2 µg/mL (≈ 1.75 to 3.5 µM). The “Inhibition of biofilm formation compared with the control” value is on record as 98% in data set [4] (MRSA13318) and 61% in data set [4] (MRSA21804). Also, the “Inhibition of biofilm already formed, in relation to the control” value in data set [3] (2 × MIC) is listed as “about 40%”. Besides, the “IC50 DPPH” value in “DPPH assay” turned out to be 1077.66 ± 0.42 µg/mL (≈ 1890 µM). The same molecule yielded a hemolysis at 24 h, 31.25 µg/mL in “in vitro” of 12 to 20%.
